Laboratory results taken from US12325744B2, “Methods for reducing post-operative cognitive dysfunction (POCD)” (The Kennedy Trust for Rheumatology Research, priority 2010, dated 2025).
“Also recorded” adds a separate entry of the source.

What was measured:
[1] = test system: C57BL/6 male mice; assay: Observation of sickness behavior after LPS injection; type: in vivo; conditions: LPS 1 mg/kg i.p.; IL-1Ra pre-treatment
Method: Animals. All the experiments were conducted under the UK Home Office approved license. Wild type C57BL/6 male mice, 12-14 weeks old, weighting 25-30 g were used and housed in groups of five in a 12-h-12-h light dark cycle, with controlled temperature and humidity with free access to food and water. IL-1R^−/− (kindly provided by Nancy Rothwell, University of Manchester) were bred in-house on a C57BL/6 background and age-matched to wild type counterparts. Seven days of acclimatization were allowed before starting any experiment. All the animals were checked on a daily basis and evidence of poor grooming, huddling, piloerection, weight loss, back arching and abnormal activity, were excluded in the experiments.
Treatment. LPS derived from Escherichia Coli endotoxin ([…], InvivoGen, USA, 1 mg/kg) was dissolved in normal saline and injected intraperitoneally. IL-1Ra (Amgen, Anakinra 100 mg/kg, Nederlands) was given subcutaneously immediately before LPS administration. Dose response curve from LPS or IL-1Ra was obtained from our pilot studies to provoke or to suppress moderate degree of microglia activation respectively. Control animals were injected with equivalent volumes (0.1 ml) of saline. […]

[2] = test system: C57-BL6 mice; assay: Fear conditioning, freezing to context after tibial surgery; type: in vivo; conditions: wild type mice, surgery 30 min after training, tested three days later
Method: Fear conditioning tests. Mice were conditioned 30 minutes or 3 days prior to intervention by training with two cycles of tone and foot-shock pairings. In delay fear conditioning a foot-shock was administered during the last 2 seconds of each 20 seconds-lasting tone.
In trace fear conditioning, the foot-shock onset, lasting 2 seconds as in the previous paradigm, followed a 20-second gap after each tone termination. Three days after conditioning, mice were placed back in the original conditioning chamber for 270 seconds, where no tone or shock were presented, to assess recall of contextual fear memory. After 3 h mice were placed in a novel environment (different context from training) to test for auditory-cued memory. Following an initial baseline period of 135 seconds during which freezing was scored in absence of noise, the auditory cue was presented for the final 135 seconds of the test, and freezing was again recorded. (For further details please refer to supplemental methods).
The behavioral study was conducted using a conditioning chamber (Med. Associates Inc., St. Albans, VT, USA). The back- and the side-walls of the chamber were made of aluminium, whereas the front door and the ceiling were of transparent Plexiglas. The floor of the chamber consisted of 36 stainless steel rods (1 mm diameter) spaced 0.5 cm apart (center-to-center). […]

Question: With “IL-1Ra: IL-1 receptor antagonist (Amgen, Anakinra)” as the substance, how does the “Symptoms of sickness behavior after LPS, effect of IL-1Ra” value [1] read?
Answer: abolished the main symptoms of sickness behavior

Question: And the “Freezing to context (delay fear conditioning) after surgery, effect of treatment” value [2]?
Answer: prevented the decrement in postoperative freezing behavior; also recorded: significantly reduced the surgery-induced decrement in freezing behavior
